Series [1] can be described thus: In vitro cytotoxicity, human lung carcinoma A-549 cell culture. The series is classed as cell-based. As to conditions: read-out: Cytotoxicity μg/mL (IC50). The protocol:
(§1) The antitumor activities of this compound have been determinated "in vitro" in cell cultures of human lung carcinoma A-549 and human colon carcinoma HT-29. The procedure was carried out using the methodology described by Raymond J. Bergeron et al., Biochem. Biophys. Res. Comm. 1984, 121 (3), 848-854 and by Alan C. Schroeder et al., J. Med. Chem. 1981, […] 1078-1083.

A short description of series [2]: In vitro cytotoxicity, human colon carcinoma HT-29 cell culture. The series is classed as cell-based. Particulars: read-out: Cytotoxicity μg/mL (IC50). The protocol: as §1
The next series concerns HSV II. Particulars: Mv 1 Lu cells.
The subject of the next series is HSV-1. Particulars: CV-1 cells.
The subject of a further series is Saccharomyces cerevisiae. As to conditions: 50 μg/disk.

≈ marks a conversion by molar mass, not a printed value.

With `C/C=C1\NC(=O)[C@H](Cc2ccccc2)NC(=O)[C@@H](C(C)C)NC(=O)[C@@H]([C@@H](C)CC)NC(=O)[C@H](NC(=O)[C@H](NC(=O)[C@H](CCCN)NC(=O)[C@H]2CCCN2C(=O)[C@H](NC(=O)[C@@H](NC(=O)[C@@H](NC(=O)[C@H](NC(=O)CCCC(C)C)C(C)C)[C@@H](C)O)C(C)C)C(C)C)[C@@H](C)CC)[C@@H](C)OC(=O)[C@H](C(C)C)NC1=O` [Kahalalide F], the values for the IC50 in series [1] and in series [2] were 2.5 µg/mL (≈ 1.69 µM) and 0.25 to 0.5 µg/mL (≈ 0.169 to 0.338 µM), respectively. The compound further registered an Antiviral % reduction in the series with HSV II (at 0.5 μg/mL) of 95%. Besides, the “Antiviral μg/mL (M.I.C.)” value is 0.5 µg/mL in the series on HSV II (concentration giving the printed % reduction), over 8 µg/mL in the series on HSV-1 and over 8 in the series on VSV. For the same compound, the “Antifungal 6 mm disk (zone)” value with Saccharomyces cerevisiae is “neg”.
